What was measured:
Assay in all cases: relative viability (nuclei count vs DMSO), 5 days (fraction); higher = more cells survive
[1] = compound: CN1C=C(C2=CC=CC=C21)/C=C\3/C4=C(C=CC=N4)NC3=O + CC(C)C[C@H](NC(=O)[C@H](Cc1ccccc1)NC(=O)c1cnccn1)B(O)O [Bortezomib] (partner 0.002 µM)
In short: (§1)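 After 5 days of treatment, lung cancer cells in 1536-well plates were fixed and stained in a single step (final 0.05% Triton X-100, 1% formaldehyde, 1 ug/ml Hoechst) and their nuclei counted on 4× images. Treatment had been applied by pin tool the day after seeding as one drug alone or as a fixed anchor-drug dose with five library-drug doses (not always all listed) in √10 steps. Relative viability is the nuclei count of treated wells divided by that of vehicle wells, and values are medians of duplicate plates.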

Trametinib + Palbociclib = compound: CC(=O)Nc1cccc(-n2c(=O)n(C3CC3)c(=O)c3c(Nc4ccc(I)cc4F)n(C)c(=O)c(C)c32)c1 [Trametinib] + CC(=O)c1c(C)c2cnc(Nc3ccc(N4CCNCC4)cn3)nc2n(C2CCCC2)c1=O [Palbociclib] (partner 0.5 µM)
In short: as §1

Trametinib + Lapatinib = compound: CC(=O)Nc1cccc(-n2c(=O)n(C3CC3)c(=O)c3c(Nc4ccc(I)cc4F)n(C)c(=O)c(C)c32)c1 [Trametinib] + CS(=O)(=O)CCNCc1ccc(-c2ccc3ncnc(Nc4ccc(OCc5cccc(F)c5)c(Cl)c4)c3c2)o1 [Lapatinib] (partner 2 µM)
In short: as §1

[2] = compound: CN1C=C(C2=CC=CC=C21)/C=C\3/C4=C(C=CC=N4)NC3=O + COc1cc2c(Oc3ccc(NC(=O)C4(C(=O)Nc5ccc(F)cc5)CC4)cc3F)ccnc2cc1OCCCN1CCOCC1 [Foretinib] (partner 0.25 µM)
In short: as §1

Cell Line	relative viability ([1]; first compound 0.02 µM)	relative viability ([1]; first compound 0.06325 µM)	relative viability ([1]; first compound 0.6325 µM)	relative viability ([1]; first compound 2 µM)	relative viability (Trametinib + Palbociclib; first compound 0.0025 µM)	relative viability (Trametinib + Palbociclib; first compound 0.007906 µM)	relative viability (Trametinib + Palbociclib; first compound 0.025 µM)	relative viability (Trametinib + Palbociclib; first compound 0.07906 µM)	relative viability (Trametinib + Palbociclib; first compound 0.25 µM)	relative viability (Trametinib + Lapatinib; first compound 0.0025 µM)	relative viability (Trametinib + Lapatinib; first compound 0.007906 µM)	relative viability (Trametinib + Lapatinib; first compound 0.025 µM)	relative viability (Trametinib + Lapatinib; first compound 0.07906 µM)	relative viability (Trametinib + Lapatinib; first compound 0.25 µM)	relative viability ([2]; first compound 0.02 µM)	relative viability ([2]; first compound 0.06325 µM)	relative viability ([2]; first compound 0.6325 µM)	relative viability ([2]; first compound 2 µM)	relative viability ([1]; first compound 0.2 µM)	relative viability ([2]; first compound 0.2 µM)
NCI-H650	0.702	0.859	0.725	0.879	0.421	0.469	0.487	0.535	0.374	0.885	1.19	0.845	0.825	0.498	1.05	0.938	1.02	1	–	–
A-427	0.939	0.9	1.03	1.21	0.534	0.511	0.45	0.45	0.372	1.1	1.05	0.619	0.818	0.678	1.18	1.21	0.958	1.1	–	–
NCI-H2347	0.976	1.01	0.615	1	0.372	0.363	0.324	0.316	0.291	0.961	0.56	0.503	0.435	0.452	1.13	0.76	0.707	0.748	0.906	0.988
NCI-H1651	0.811	1.03	0.885	1.06	0.489	0.501	0.51	0.459	0.432	0.757	0.74	0.66	0.531	0.452	0.809	0.803	0.891	0.812	0.931	0.894
HCC-78	0.41	0.499	0.432	0.469	0.452	0.46	0.398	0.457	0.449	0.827	0.533	0.988	0.299	0.469	0.545	0.554	0.509	0.552	0.519	–
NCI-H23	1.02	0.982	0.938	1.21	0.472	0.414	0.268	0.209	0.175	0.872	0.74	0.335	0.529	0.211	0.982	0.977	1.03	1.07	–	1.03
LOU-NH91	0.473	0.489	0.441	0.485	0.604	0.524	0.561	0.552	0.453	0.745	0.736	0.603	0.753	0.414	0.904	0.915	0.925	0.9	0.468	0.835
LXF-289	0.951	0.992	1.02	1.04	0.526	0.508	0.423	0.429	0.379	0.863	0.759	0.677	0.615	0.57	0.943	0.957	1.05	0.977	1.1	1.04
NCI-H460	1.23	1.1	–	1.14	0.152	0.0859	0.0921	0.018	0.0172	0.897	0.754	0.42	0.148	0.0413	1.09	0.967	0.986	0.975	1.07	1.05
NCI-H1792	0.784	0.977	–	0.889	0.6	0.51	0.49	0.382	0.303	0.976	0.79	0.682	0.535	0.417	–	–	–	–	0.835	–
EMC-BAC-2	0.901	1.05	1.05	1.14	0.581	0.555	0.495	0.502	0.357	0.866	0.872	0.711	0.92	0.626	1.04	0.996	1.06	1.08	1.01	1.01
CAL-12T	0.904	0.882	1.08	1.04	0.387	0.193	0.179	0.171	0.187	0.54	0.514	0.47	0.648	0.429	1.08	1.03	1.08	1.03	0.945	1.08
COR-L 105	0.743	0.749	0.675	0.811	0.39	0.44	0.421	0.34	0.347	0.37	0.413	0.332	0.381	0.326	1.09	0.993	0.957	0.952	0.693	0.834
NCI-H2009	1.01	0.963	1.07	1	0.138	0.135	0.109	0.135	0.125	0.841	0.612	0.225	0.343	0.236	1.22	1.19	1.24	1.24	0.963	1.19
NCI-H1437	0.629	0.613	0.511	0.54	0.319	0.226	0.204	0.196	0.211	0.673	0.278	0.17	0.178	0.209	1.34	1.22	1.31	1.3	0.475	1.34
PC-14	0.826	0.831	0.898	0.991	0.46	0.306	0.295	0.214	0.102	0.27	0.194	0.182	0.192	0.192	0.993	0.975	0.959	1.01	0.981	1.04
COR-L23	1.01	0.953	0.866	1.04	0.317	0.246	0.191	0.143	0.14	1.04	0.923	0.786	0.788	0.48	1.11	1.04	1.1	1.08	1.19	0.92
